Reference: ChEMBL document CHEMBL2040717, “Cytotoxic diterpenoids from Sapium insigne” (J Nat Prod, 2012)
Activity calls are given as the source filed them. The calls are words filed in the database; no cut-off is given here.

Columns and labels:
A549 [1] = assay: Cytotoxicity against human A549 cells by SRB assay; assay type: functional, cell-based
HL-60 [2] = assay: Cytotoxicity against human HL60 cells by MTT assay
A549 [3] = assay: Cytotoxicity against human A549 cells at 100 uM by SRB assay; assay type: functional, cell-based
HL-60 [4] = assay: Cytotoxicity against human HL60 cells at 100 uM by MTT assay

Compound | IC50 (A549 [1]) [µM] | IC50 (HL-60 [2]) [µM] | Activity (A549 [3]) | Activity (HL-60 [4])
CCCCCCCC/C=C/C=C/CC(=O)O[C@@]12C[C@@H](C)[C@@]3(O)[C@@H](C=C(CO)C[C@]4(O)C(=O)C(C)=C[C@@H]34)[C@@H]1[C@@]2(C)COC(C)=O [SAPINSIGNOID D] | 0.9 |  |  | 
CCCCCCCCC(=O)/C=C/C=C/C(=O)O[C@@]12C[C@@H](C)[C@@]3(O)[C@@H](C=C(CO)C[C@]4(O)C(=O)C(C)=C[C@@H]34)[C@@H]1[C@@]2(C)COC(C)=O [SAPINSIGNOID C] | 0.4 | 2.7 |  | 
CCCCCCCC[C@@H](O)/C=C/C=C/C(=O)O[C@@]12C[C@@H](C)[C@@]3(O)[C@@H](C=C(CO)C[C@]4(O)C(=O)C(C)=C[C@@H]34)[C@@H]1[C@@]2(C)COC(C)=O [SAPINSIGNOID A] | 1.8 | 3.4 |  | 
C[C@H]1C[C@]23CC[C@H]1C[C@H]2[C@]1(C)CCCC(C)(C)[C@H]1CC3 |  |  | inactive | inactive
CC[C@H](C)CC[C@@H]1[C@H](C)CC[C@@H]2C(C)(C)CCC[C@@]12C |  |  | inactive | inactive
CCCCCCCC[C@H](O)/C=C/C=C/C(=O)O[C@@]12C[C@@H](C)[C@@]3(O)[C@@H](C=C(CO)C[C@]4(O)C(=O)C(C)=C[C@@H]34)[C@@H]1[C@@]2(C)COC(C)=O [SAPINSIGNOID B] | 0.2 | 6.5 |  | 
C[C@H]1C[C@@]23CC[C@@H]4C(C)(C)CCC[C@@]4(C)[C@@H]2CC[C@@H]1C3 |  |  | inactive | inactive
